US10757944B2, “Ozone treatment for elimination of pathogens” (priority 2016, dated 2020)
“And” between values parts separate entries of the source, which are not always exact repeats. Identical values can stand only once.

Legend:
Format in all cases: cell-based
Escherichia Coli = assay: Gaseous ozone treatment of Cannabis inoculated with E. Coli, microbial count
Experimental: (§1) Cannabis plants were individually contaminated with Escherichia Coli, Salmonella enterica sv typhimurium, Listeria monocytogenes and Candida albicans then exposed to gaseous ozone for 20 minutes at 100 ppm and 200 ppm.
Pure cultures of Escherichia coli and Listeria monocytogenes provided by the American Type Culture Collection (ATCC) were grown in selective media broths. The Candida albicans provided by ATCC was grown on potato dextrose agar, and after significant growth was achieved, the colonies were transferred and suspended in Butterfield's buffer. After significant turbidity in each broth of pathogens was observed, they, along with Butterfield's buffer with the suspended Candida albicans, were used to inoculate individual Cannabis samples. […]
Three samples for each organism were tested at each of the concentrations. […] All samples were then analyzed for their microbial counts by first generating serial dilution using Butterfield's buffer as the diluent for each sample then individually plating the resultant dilutions onto selective media appropriate for the organism being analyzed. After the required incubation temperatures and times were completed, the organisms on the plates were counted. For each set of dilutions of a given sample and starting at the plate representing the lowest dilution ratio, the first plate that was countable was counted and the result was recorded. […]

total yeast and mold = assay: Total yeast and mold on homogenized cannabis flower after ozone exposure (3M Petrifilm Rapid Yeast and Mold Count Plate); conditions: for Average CFU/g (all samples tested) of yeast and mold remaining: 0 minutes: 68,000
Experimental: The ability of ozone to reduce fungus using an embodiment of a disclosed pathogen reduction device was also evaluated. In this series of experiments, homogenized cannabis flower with a total yeast and mold bio-burden exceeding 10,000 CFU/g was exposed to ozone using an embodiment of a disclosed pathogen reduction device. 20 gram samples of the cannabis flower were separated into two groups (10 grams a group) and placed on different racks within the pathogen reduction device. One 10 gram sample was placed on an industrial grade aluminum rack with air holes in order to maximize ozone flow and increase the surface area of the flower that would be exposed to ozone. A second 10 gram sample was place directly onto a rack screen (aluminum foil with holes pocked into it); however, because some of the homogenized cannabis flower was finer than the rack screen, some flower from the second 10 gram sample passed through the rack screen and landed on the lowest mesh screen in the device, thereby, creating a third sample for testing.
20 gram samples as described above were exposed to ozone for 0 minutes (control), 20 minutes, 30 minutes, 45 minutes, and 60 minutes at an ozone concentration of 200 ppm. Six 1 gram samples from each treatment time were processed and evaluated using a 3M® Petrifilm® Rapid Yeast and Mold Count Plate and accompanying Product Instructions. The ozone treated samples were homogenized, diluted with buffer (distilled water), and then 1 milliliter suspension samples were dispensed onto 3M® Petrifilm® Rapid Yeast and Mold Count Plates. The plates were incubated at 27° C. for greater than 60 hours in order to quantify the total yeast and mold remaining on the cannabis flower following exposure to ozone. Three of the six 1 gram samples were taken from the flower placed on the industrial grade aluminum rack as detailed above. Two of the 1 gram samples were taken from the flower placed directly on the screen. The final 1 gram sample was collected from the lowest mesh screen in the device where the finest flower collected after falling through the rack screen.

mold and yeast = assay: Additional ozone exposure tests on cannabis flower or trim, mold and yeast CFU; conditions: ozone 200 ppm
Experimental: Some additional ozone exposure tests were performed with cannabis flower or trim on a variety of commercially available strains using an embodiment of a disclosed pathogen reduction device. In each experiment (disclosed in Table 6) a reduction of mold and yeast CFU/g was measured (as disclosed above using 3M® Petrifilm® Rapid Yeast and Mold Count Plate and Product Instruction) after treating different weights of cannabis with an ozone concentration of 200 ppm for between 20 and 60 minutes.

[1] = test system: Salmonella enterica sv typhimurium; assay: Gaseous ozone treatment of Cannabis inoculated with Salmonella, microbial count; conditions: for kill of bacterial pathogen (in words): 20 minutes; for Microbial Count: 20 min
Experimental: as §1
(§2) Pure cultures of Escherichia coli and Listeria monocytogenes provided by the American Type Culture Collection (ATCC) were grown in selective media broths. The Candida albicans provided by ATCC was grown on potato dextrose agar, and after significant growth was achieved, the colonies were transferred and suspended in Butterfield's buffer. After significant turbidity in each broth of pathogens was observed, they, along with Butterfield's buffer with the suspended Candida albicans, were used to inoculate individual Cannabis samples. This process created four individual populations of Cannabis with each population being contaminated with one of the four organisms grown. After inoculating the samples they were allowed to dry overnight by placing them out in the open at room temperature. Each population of Cannabis was then divided into smaller individual 2-4 gram samples which were used in the tests. One test consisted of placing nearly half of the smaller samples into an ozone gas chamber for 20 minutes at an approximate ozone concentration of 100 ppm. The remaining samples were set aside to be used as controls.
(§3) Three samples for each organism were tested at each of the concentrations. The control samples were placed into the same chamber for 20 minutes with an ozone concentration of 0 ppm. All samples were then analyzed for their microbial counts by first generating serial dilution using Butterfield's buffer as the diluent for each sample then individually plating the resultant dilutions onto selective media appropriate for the organism being analyzed. After the required incubation temperatures and times were completed, the organisms on the plates were counted. For each set of dilutions of a given sample and starting at the plate representing the lowest dilution ratio, the first plate that was countable was counted and the result was recorded.
(§4) Testing occurred over two days. The first day involved testing one sample of Cannabis for each organism at an ozone concentration of 100 ppm and another test of only Listeria at 50 ppm. Additional testing involving subsequent trials for each organism at ozone concentrations of 100 ppm and 200 ppm were conducted on the second day of testing.
(§5) The ozone concentration in the ozone chamber was kept at a range approximating the desired 100 ppm and 200 ppm concentrations. For instance, when the desired concentration was 100 ppm, the actual range of concentrations was 98 ppm to 106 ppm, and when the desired concentration was 200 ppm, the actual range of concentration was 198 ppm to 204 ppm. […]

Candida albicans = assay: Gaseous ozone treatment of Cannabis inoculated with Candida, microbial count; conditions: for Microbial Count: 20 min
Experimental: as §1, §2, §3, §4, §5

Listeria monocytogenes = assay: Gaseous ozone treatment of Cannabis inoculated with Listeria, microbial count; conditions: for kill of bacterial pathogen (in words): 20 minutes
Experimental: as §1, §2, §3, §4
The ozone concentration in the ozone chamber was kept at a range approximating the desired 100 ppm and 200 ppm concentrations. For instance, when the desired concentration was 100 ppm, the actual range of concentrations was 98 ppm to 106 ppm, and when the desired concentration was 200 ppm, the actual range of concentration was 198 ppm to 204 ppm. While the samples were being placed into the chamber ozone gas was lost.

CFUs on cannabis flower = assay: Exposure of cannabis flower to 200 ppm ozone, CFU reduction; conditions: between about 20 minutes and 90 minutes
[2] = 100 ppm ozone, compared with 200 ppm

O=[O+][O-] [ozone]
kill of Escherichia coli (in words) (Escherichia Coli; both 100 ppm and 200 ppm ozone, 20 minutes): significantly vulnerable | Microbial Count (Escherichia Coli; first day, target ozone 100 ppm (actual 95-102 ppm), 20 min, control (0 ppm) 1.2 * 10^11): 2.8 * 10^10 cfu/g | decrease in total yeast and mold bio-burden (total yeast and mold; 200 ppm ozone for 60 minutes): 92% | average Colony Forming Units/gram after treatment (total yeast and mold; 200 ppm ozone for 60 minutes, dropping from an average of 82,000 CFU/g): 7,000 CFR/g | Average CFU/g (all samples tested) of yeast and mold remaining (total yeast and mold; 200 ppm ozone, 20 minutes): 18,000 CFU/g | CFU/g (Test 1) (total yeast and mold; 200 ppm ozone, 20 minutes, Industrial grade aluminum rack (samples 4-6), T0: 25,000, 60,000, 82,000): 19,000 CFU/g and 12,000 CFU/g and 21,000 CFU/g | CFU/g (Test 2) (total yeast and mold; 200 ppm ozone, 20 minutes, Industrial grade aluminum rack (samples 4-6), T0: 53,000, 140,000, 130,000): 23,000 CFU/g and 18,000 CFU/g and 21,000 CFU/g | CFU/g (Test 2) (total yeast and mold; 200 ppm ozone, 20 minutes, Lowest mesh screen (sample 1), T0: 61,000): 24,000 CFU/g | CFU/g (Test 1) (total yeast and mold; 200 ppm ozone, 20 minutes, Lowest mesh screen (sample 1), T0: 77,000): 18,000 CFU/g | CFU/g (Test 2) (total yeast and mold; 200 ppm ozone, 20 minutes, Rack screen (samples 2-3), T0: 28,000, 77,000): 16,000 CFU/g and 17,000 CFU/g | CFU/g (Test 1) (total yeast and mold; 200 ppm ozone, 20 minutes, Rack screen (samples 2-3), T0: 30,000, 50,000): 15,000 CFU/g | Average CFU/g (all samples tested) of yeast and mold remaining (total yeast and mold; 200 ppm ozone, 30 minutes): 17,000 CFU/g | CFU/g (Test 1) (total yeast and mold; 200 ppm ozone, 30 minutes, Industrial grade aluminum rack (samples 4-6), T0: 25,000, 60,000, 82,000): 16,000 CFU/g and 11,000 CFU/g and 20,000 CFU/g | CFU/g (Test 2) (total yeast and mold; 200 ppm ozone, 30 minutes, Industrial grade aluminum rack (samples 4-6), T0: 53,000, 140,000, 130,000): 15,000 CFU/g and 14,000 CFU/g and 20,000 CFU/g | CFU/g (Test 2) (total yeast and mold; 200 ppm ozone, 30 minutes, Lowest mesh screen (sample 1), T0: 61,000): 20,000 CFU/g | CFU/g (Test 1) (total yeast and mold; 200 ppm ozone, 30 minutes, Lowest mesh screen (sample 1), T0: 77,000): 16,000 CFU/g | CFU/g (Test 2) (total yeast and mold; 200 ppm ozone, 30 minutes, Rack screen (samples 2-3), T0: 28,000, 77,000): 30,000 CFU/g and 16,000 CFU/g | CFU/g (Test 1) (total yeast and mold; 200 ppm ozone, 30 minutes, Rack screen (samples 2-3), T0: 30,000, 50,000): 18,000 CFU/g and 13,000 CFU/g | Average CFU/g (all samples tested) of yeast and mold remaining (total yeast and mold; 200 ppm ozone, 45 minutes): 16,000 CFU/g | CFU/g (Test 2) (total yeast and mold; 200 ppm ozone, 45 minutes, Lowest mesh screen (sample 1), T0: 61,000): 11,000 CFU/g | CFU/g (Test 1) (total yeast and mold; 200 ppm ozone, 45 minutes, Lowest mesh screen (sample 1), T0: 77,000): 7,100 CFU/g | CFU/g (Test 2) (total yeast and mold; 200 ppm ozone, 45 minutes, Rack screen (samples 2-3), T0: 28,000, 77,000): 15,000 CFU/g and 12,000 CFU/g | CFU/g (Test 1) (total yeast and mold; 200 ppm ozone, 45 minutes, Rack screen (samples 2-3), T0: 30,000, 50,000): 13,000 CFU/g and 11,000 CFU/g | Average CFU/g (all samples tested) of yeast and mold remaining (total yeast and mold; 200 ppm ozone, 60 minutes): 6,000 CFU/g | CFU/g (Test 2) (total yeast and mold; 200 ppm ozone, 60 minutes, Lowest mesh screen (sample 1), T0: 61,000): 9,000 CFU/g | CFU/g (Test 1) (total yeast and mold; 200 ppm ozone, 60 minutes, Lowest mesh screen (sample 1), T0: 77,000): 7,400 CFU/g | CFU/g (Test 2) (total yeast and mold; 200 ppm ozone, 60 minutes, Rack screen (samples 2-3), T0: 28,000, 77,000): 10,000 CFU/g and 6,300 CFU/g | CFU/g (Test 1) (total yeast and mold; 200 ppm ozone, 60 minutes, Rack screen (samples 2-3), T0: 30,000, 50,000): 6,000 CFU/g and 7,800 CFU/g | additional reduction in CFU/g (total yeast and mold; 200 ppm ozone, after the first 20 minutes and up until 45 minutes): 1.1% | another reduction in CFU/g (total yeast and mold; 200 ppm ozone, between a 45 minute and 60 minute exposure): 14.1% | yeast and mold across all 6 samples following treatment (total yeast and mold; 200 ppm ozone, from roughly 10^5 CFU/g): below 10,000 CFU/g | inhibition of fungi by ozone exposure (in words) (total yeast and mold; Table 4, 200 ppm ozone, 20-60 minutes): strongly inhibited | Ending CFU (mold and yeast; Flower, Hybrid, 5 lbs, 60:00 min, Initial CFU 77,000): 4500 CFU | Ending CFU (mold and yeast; Flower, Hybrid/Indica, 1 lb, 45:00 min, Initial CFU 2,200): 220 CFU | Ending CFU (mold and yeast; Flower, Hybrid/Indica, 6 lbs, 25:00 min, Initial CFU 51,750): 30,000-32,000 CFU | Ending CFU (mold and yeast; Flower, Hybrid/Indica, weight NA, 60:00 min, Initial CFU 110,000): 3,000 CFU | Ending CFU (mold and yeast; Flower, Hybrid/Sativa, 1 lb, 20:00 min, Initial CFU 100,000): 5,400-5,500 CFU | Ending CFU (mold and yeast; Flower, Indica, 3 lbs, 60:00 min, Initial CFU 320,000): 91,000 CFU | Ending CFU (mold and yeast; Trim, Hybrid/Indica, 6 lbs, 25:00 min, Initial CFU 17,000): 800-11,000 CFU | Ending CFU (mold and yeast; Trim, Hybrid/Sativa, 3 lbs, 60:00 min, Initial CFU 50,000): 3,000 CFU | kill of bacterial pathogen (in words) [1, 2]: lesser kill rate | kill of bacterial pathogen (in words) ([1]; 200 ppm ozone): Significant kills | Microbial Count ([1]; first day, target ozone 100 ppm (actual 95-102 ppm), control (0 ppm) 1.1 * 10^11): 1.7 * 10^10 cfu/g | Microbial Count ([1]; second day, ozone 100 ppm (98-106 ppm), Trials 2-3, control 4.5 * 10^4): 1.1 * 10^4 cfu/g and 1.3 * 10^4 cfu/g | effect of ozone treatment on Candida albicans (in words) (Candida albicans; 100 ppm and 200 ppm ozone, 20 minutes): limited | microbial count of 200 ppm trials compared with the control group (in words) (Candida albicans; 200 ppm ozone, 20 minutes, FIG. 10): average reduced microbial count | Microbial Count (Candida albicans; listed as 'Mold Treated', first day, target ozone 100 ppm (actual 95-102 ppm), Mold Control (0 ppm) 1.4 * 10^12): 1.9 * 10^11 cfu/g | Microbial Count (Candida albicans; second day, ozone 100 ppm (98-106 ppm), Trials 2-3, control 5.0 * 10^5): 2.7 * 10^5 cfu/g and 1.5 * 10^4 cfu/g | difference between the control and the treated sample (in words) (Listeria monocytogenes; 50 ppm ozone, 20 min, first day): no statistically significant difference | kill of bacterial pathogen (in words) (Listeria monocytogenes; [2]): lesser kill rate | kill of bacterial pathogen (in words) (Listeria monocytogenes; 200 ppm ozone): Significant kills | Microbial Count (Listeria monocytogenes; first day, target ozone 50 ppm (actual 46-52 ppm), 20 min, control (0 ppm) 7.0 * 10^2): 2.6 * 10^2 cfu/g | Microbial Count (Listeria monocytogenes; first day, target ozone 100 ppm (actual 95-102 ppm), 20 min, control (0 ppm) 1.9 * 10^7): 4.8 * 10^5 cfu/g | Microbial Count (Listeria monocytogenes; second day, ozone 100 ppm (98-106 ppm), 20 min, Trials 2-3, control 2.0 * 10^4): 2.0 * 10^3 cfu/g and 1.0 * 10^3 cfu/g | reduction of CFUs (CFUs on cannabis flower): 100,000 to 150,000 CFUs per hour
